Data set [1] concerns A549 (human non-small-cell-lung cancer cell line). In words: CCK-8 antiproliferative assay, A549. The following applies: 48 h, read-out: IC50, Mean ± SE, A549. It is filed as cell-based. On the technique in general: Formazan colour is commonly taken as a measure of viable cells.
Data set [2] relates to HepG2 (human liver carcinoma cell line). In words: CCK-8 antiproliferative assay, HepG2. In kind it is cell-based. The conditions noted are these: 48 h, read-out: IC50, Mean ± SE, HepG2.
Data set [3] can be described thus: metabolic stability in human liver microsomes. It is filed as in vitro ADME. The procedure: Metabolic stability is one of the most important properties in drug development. In this study, commercially available human liver microsomes were used to evaluate the metabolic stability of compound 14b. After incubation with human liver microsomes at 37 °C in vitro for an indicated time in a buffer solution containing a NADPH regenerating system, the residue of 14b was monitored by HPLC. CA-4 was used as the reference compound. […] As well known, a short half-life means a low bioavailability in vivo and is required for frequent administration with a high dose, which might result in drug accumulation and may produce related toxicity.
On the technique in general: Microsomes from liver hold many membrane-bound enzymes, among them those of drug oxidation.

Data set [4] deals with A549 cells. In words: intracellular microtubule morphology by immunofluorescence. The following applies: A549, 10, 20 and 50 nM, 12 h. In kind it is cell-based, human. As for the experimental part:
Tubulin–microtubule homeostasis is crucial for cell mitosis.
Figure 2 Effect of compound 14b on tubulin. […] The experiments were performed at least three times, and representative images are shown. Scale bars are 10 μm. […] The backbone of tubulin is shown in ribbon representation (α-tubulin, yellow; β-tubulin, green). […] The data were shown as mean ± SE (standard error) of at least three independent experiments.
S Ⅳ. Biological evaluation methods
The cells grown in logarithmical phase were seeded in 96-well plates with the density of 5×10^3/well.
After 24 h, the medium containing different concentrations of tested compounds were added for another 48 h. Then, CCK-8 reagents were added to cells and continued to culture for 2 h. The optical density was recorded with a microplate reader at 570 nm (Thermo Scientific, Varioskan LUX). All the experiments were repeated independently at least three times and the IC50 values were calculated […]
S2. In vitro tubulin polymerization inhibition assay
The in vitro tubulin polymerization inhibition assay was conducted according to the manufacturer ’s instruction (cytoskeleton, cat. no. BK011P). Briefly, 5 μL of the tested compounds at the indicated

Data set [5] has as its system A549 cells. In words: MMP detection by JC-1. It is filed as cell-based, human. The conditions noted are these: A549, 10, 20 and 50 nM, 12 h. The text has this: The intrinsic mitochondrial pathway is one of the most well-studied mechanisms relevant to cell apoptosis. ROS accumulation and mitochondrial membrane potential (MMP) alteration play crucial roles in this pathway. In this study, a fluorescent dye including DCFH-DA and JC-1 was used to monitor the intracellular ROS and MMP, respectively.
Figure 5 ROS accumulation and MMP alteration induced by compound 14b. (A,B) The intracellular ROS detection by DCFH-DA after A549 cells treated with compound 14b at indicated concentrations for 12 h. (C,D) The detection of MMP monitored by JC-1 dye after A549 cells treated with compound 14b at the concentrations of 10, 20 and 50 nM for 12 h. […]
samples were fixed in ice-cold 70% ethanol overnight and removed with ice-cold PBS for three times. […] After the incubation, the prepared cell samples were immediately analyzed. Almost 10,000 events were detected by flow cytometry (Beckman Coulter, CytoFlex LX). The data regarding the number of cells in different phases of the cell cycle were or apoptotic cells were analyzed by […]
Caspase-3 activity was measured according to the manufacturer ’s instructions using a GreenNuc™ Caspase-3 assay kit for live cells (Beyotime, China). […] After incubation, the fluorescence intensity (excitation wavelength:
485 nm, emission wavelength: 515 nm) was recorded using a multifunctional microplate reader (Thermo Scientific, Varioskan LUX). […]

As usually defined, the IC50 is the concentration that gives 50% inhibition. The half-life is the time in which the quantity being followed falls by half. Read a low half-life as fast loss. As usually defined, the amount remaining is what is left of the initial amount, in per cent.

Regarding `COc1ccc(C(=O)c2ccc3c(ccn3C)c2)c2c1C=CC(C)(C)O2` [compound 14b, (5-methoxy-2,2-dimethyl-2H-chromen-8-yl)(1-methyl-1H-indol-5-yl)methanone], the IC50 in data set [1] came to 22 ± 2 nM. The IC50 in data set [2] was 74 ± 13 nM. Further, in data set [3], the half-life came to 198 min and the “metabolic stability” value was “relatively stable in the liver microsomes”. Also, in data set [3] (37 °C, NADPH regenerating system, 180 min), the Remaining% is reported as 56.17%. For the same compound, the fraction remaining at 0.5 h in data set [3] (human, liver microsomes, 37 °C, NADPH regenerating system, 30 min) amounted to 96.2%. In data set [3] (human, liver microsomes, 37 °C, NADPH regenerating system, 60 min), this compound displayed an amount remaining at 1 h of 91.4%. Besides, the fraction remaining at 1.5 h in data set [3] (human, liver microsomes, 37 °C, NADPH regenerating system, 90 min) is 84.1%. The share remaining at 2 h in data set [3] (human, liver microsomes, 37 °C, NADPH regenerating system, 120 min) stood at 74.5%. In addition, the share remaining at 2.5 h in data set [3] (human, liver microsomes, 37 °C, NADPH regenerating system, 150 min) worked out at 67.8%. In data set [3] (human, liver microsomes, 37 °C, NADPH regenerating system, 180 min), this compound yielded a share remaining at 3 h of 50.6%. In data set [3] (human, liver microsomes, 37 °C, NADPH regenerating system, 240 min), this compound showed a fraction remaining at 4 h of 43.4%. Further, the “intracellular tubulin-microtubule homeostasis” value in the data set on A549 cells [4] is listed as “heavily disturbed”. The “MMP, ratio of JC-1 aggregates to monomers” value with A549 cells [5] is “remarkably decreased”.
